Data taken from patent publication US8338480B2, “Combination treatment of metabolic disorders” (Wellstat Therapeutics Corporation, priority 2006, dated 2012).
Where a name gives a salt, the structure may show the parent alone. Marks after values point to notes of the source that are not given here.

Assays:
Assay type in all cases: in vivo
[1] = tested on: db/db mice; assay: Serum glucose and triglycerides in db/db mice treated for 4 weeks (Example 2); conditions: for Serum Glucose Mean / Serum Triglycerides Mean: 4 weeks oral gavage once per day
Experimental: (§1) Male db/db mice have a defect in the receptor for the appetite-regulating protein leptin and consequently develop hyperphagia, obesity, insulin resistance, hyperglycemia, hypertriglyceridemia. Male db/db mice are an accepted animal model for Type II diabetes. The effect of a range of single daily doses of orally administered Compound BI was assessed in this model, and the efficacy of rosiglitazone alone and in combination with Compound BI was also examined.
Male C57BL/Ksola db/db mice (“db/db mice”) were obtained from Harlan (Indianapolis, Ind.) and allowed to acclimate for a minimum of one week. […] Male C57BL/6 mice of the same age were used as lean nondiabetic controls.
(§2) Body weights and blood glucose levels were measured and animals were sorted groups of 6-7 mice with equivalent mean body weights in each group. […].
(§3) • 1. Lean Control (no treatment) • 2. Vehicle • 3. Compound BI 30 mg/kg/day • 4. Compound BI 100 mg/kg/day • 5. Compound BI 150 mg/kg/day • 6. Rosiglitazone 3 mg/kg • 7. Rosiglitazone 3 mg/kg+Compound BI 30 mg/kg • 8. Rosiglitazone 3 mg/kg+Compound BI 100 mg/kg • 9. Rosiglitazone 20 mg/kg • 10. Rosiglitazone 20 mg/kg+Compound BI 30 mg/kg • 11. Rosiglitazone 20 mg/kg+Compound BI 100 mg/kg
(§4) Drug preparation: Compound BI was suspended in a vehicle comprising 1% aqueous hydroxypropylmethylcellulose, using a tissue homogenizer to minimize particle size and maximize uniformity of the suspension. Rosiglitazone was suspended in the same vehicle. Drug concentrations in the dosing suspension for each treatment group were adjusted according to body weights so that a constant volume of 0.4 ml provided appropropriate drug doses in all groups.
(§5) Drug Administration: Drugs were administered orally by gavage once per day for 28 days.
Blood sampling: For serum chemistry analysis, nonfasting blood samples (200 microliters) were obtained via the retro-orbital sinus and collected in serum separator tubes at 11 AM on days 14 and 28 after initiation of drug administration.

[2] = tested on: db/db mice; assay: Body weight and food consumption in db/db mice treated for 4 weeks (Example 2); conditions: for Body Weight (grams) Mean ± SD 4 Weeks / Food Consumption Week 2 / Food Consumption Week 3 / Food Consumption Week 4 / Change in Body Weight (grams): db/db mice; for Change in Body Weight (grams): initial to 4 weeks
Experimental: as §1
Male C57BL/Ksola db/db mice (“db/db mice”) were obtained from Harlan (Indianapolis, Ind.) and allowed to acclimate for a minimum of one week. Animals received Purina 5008 Lab Diet and tap water ad libitum and were housed with 3-4 animals per cage. Male C57BL/6 mice of the same age were used as lean nondiabetic controls.
as §2, §3, §4, §5

[3] = tested on: Male C57B1/6 mice; assay: Food intake and body weight of male C57Bl/6 mice under restricted feeding (Example 3); conditions: for Post-treatment Food Intake (5 Hour): 5 hour meal; for Change in Body weight % / Change in Body weight (grams ± SEM) / Post-treatment Body weight: restricted feeding
Experimental: Animals. […] Food was withheld for the remainder of each day. Because of the restricted feeding time, the mice eat less than under ad libitum food availability. Therefore, reduction of food intake in this model requires a drug effect sufficient to overcome the hunger stimulus provided by subnormal daily food intake. Drug Administration. Groups of 10 mice each (individually weighed and marked, divided into 5/cage and trained and monitored as above; were dosed once per day with Compound BI (100 mg/kg), rosiglitazone (3 mg/kg), both drugs, or vehicle by oral gavage at 8 AM for four consecutive days. Comparator groups receiving appetite modulators not suitable for oral dosing (PYY and cerulenin) received intraperitoneal injections at 8 AM for four consecutive days. […] [table]

[4] = tested on: db/db mice; assay: Serum glucose in db/db mice after two weeks (Example 4)
Experimental: • 8. Vehicle (1% hydroxypropylmethylcellulose) • 9. Compound BI 100 mg/kg • 10. Rosiglitazone (RSG) 3 mg/kg • 11. Compound BI 100 mg/kg+RSG 3 mg/kg • 12. Compound CF 100 mg/kg • 13. Compound CF 100 mg/kg+RSG 3 mg/kg • 14. Compound CT 100 mg/kg+RSG 3 mg/kg • 15. […]
After two weeks, blood samples were collected from the retro-orbital sinus and processed for serum chemistry measurements.

[5] = tested on: db/db mice; assay: Serum glucose in db/db mice, combinations with rosiglitazone or pioglitazone, 4 weeks (Example 5); conditions: 4 weeks oral once per day
Experimental: as §1
Male C57BL/Ksola db/db mice (“db/db mice”) were obtained from Harlan (Indianapolis, Ind.) and allowed to acclimate for a minimum of one week.
as §2
• 12. Vehicle • 13. Compound BI 100 mg/kg/day • 14. Rosiglitazone 3 mg/kg • 15. Rosiglitazone 3 mg/kg+Compound BI 100 mg/kg • 16. Pioglitazone 30 mg/kg • 17. Pioglitazone 30 mg/kg+Compound BI 100 mg/kg • 18. Pioglitazone 100 mg/kg • 19. Pioglitazone 100 mg/kg+Compound BI 100 mg/kg
as §4, with “Pioglitazone and rosiglitazone were” for “Rosiglitazone was”, “vehicle after pulverization of commercial tablets of each of these drugs.” for “vehicle.”
as §5
Blood sampling: For serum chemistry analysis, nonfasting blood samples (200 microliters) were obtained via the retro-orbital sinus and collected in serum separator tubes at 11 AM on day 28 after initiation of drug administration.

[6] = tested on: db/db mice; assay: Serum glucose in db/db mice treated for two weeks (Example 6); conditions: for Glucose / Glucose (% Control): two weeks daily oral; for Glucose (% Control): vehicle = 100
Experimental: A minimum of 7 days was allowed for adaptation after arrival.
Treatment cohorts were given daily oral doses of vehicle, Compound BI (100 mg/kg/day), rosiglitazone (RSG; 3 mg/kg/day) or a combination of the two drugs for 2 weeks. At the end of the treatment period epididymal fat pads were excised, frozen and subsequently processed for measurement of UCP1 by Western Blot analysis. Blood samples were also collected prior to sacrifice via the retro-orbital plexus, and processed and analyzed for serum glucose (AniLytics, Inc.; Gaithersburg Md.).

[7] = Rosiglitazone 3 mg/kg oral once per day
[8] = Compound BI 100 mg/kg oral once per day

## CN(CCOc1ccc(CC2SC(=O)NC2=O)cc1)c1ccccn1 (stereo not shown) [RSG, rosiglitazone maleate, reference compound]
[1]; RSG 3 mg/kg
  Serum Glucose Mean: 382.8 mg/dL
  Serum Triglycerides Mean: 99.2* mg/dL
[1]; RSG 20 mg/kg
  Serum Glucose Mean: 344.7 mg/dL
  Serum Triglycerides Mean: 117.3* mg/dL
[2]; 4 Weeks oral once per day, RSG 20 mg/kg
  Body Weight (grams) Mean ± SD 4 Weeks: 51.4 ± 1.4 grams
[2]; 4 weeks oral once per day, RSG 3 mg/kg
  Body Weight (grams) Mean ± SD 4 Weeks: 48.2 ± 2.6 grams
[2]; RSG 3 mg/kg
  Food Consumption Week 2: 5.3 grams/24 hr/mouse
  Food Consumption Week 3: 4.0 grams/24 hr/mouse
  Food Consumption Week 4: 4.8 grams/24 hr/mouse
  Change in Body Weight (grams): +6.4 grams
[2]; RSG 20 mg/kg
  Food Consumption Week 2: 5.4 grams/24 hr/mouse
  Food Consumption Week 3: 5.9 grams/24 hr/mouse
  Food Consumption Week 4: 6.3 grams/24 hr/mouse
  Change in Body Weight (grams): +10.3 grams
[3]; [7]
  Post-treatment Food Intake (5 Hour): 2.21 ± 0.15 grams
  Change in Body weight %: −0.55 ± 0.44%
  Change in Body weight (grams ± SEM): −0.12 ± 0.09 grams
  Post-treatment Body weight: 20.76 ± 0.39 grams
[4]; RSG 3 mg/kg alone
  Glucose ± SD: 258 ± 74 mg/dL
[5]; RSG 3 mg/kg
  Serum Glucose (mg/dL) Mean ± SD: 432 ± 138 mg/dL
[6]; RSG 3 mg/kg
  Glucose: 403.7 ± 28.0 mg/dL
  Glucose (% Control): 59 ± 4 % Control

## Cc1cccc(C)c1COc1cccc(C(=O)CCC(=O)O)c1 [Compound BI, 4-(3-(2,6-Dimethylbenzyloxy)phenyl)-4-oxobutyric acid]
[1]; Compound BI 30 mg/kg
  Serum Glucose Mean: 657.8 mg/dL
  Serum Triglycerides Mean: 281.2* mg/dL
[1]; Compound BI 100 mg/kg
  Serum Glucose Mean: 330.3* mg/dL
  Serum Triglycerides Mean: 179.1* mg/dL
[1]; Compound BI 150 mg/kg
  Serum Glucose Mean: 271.7* mg/dL
  Serum Triglycerides Mean: 177.7* mg/dL
[1]; combination: rosiglitazone 3 mg/kg/day + Compound BI 30 mg/kg/day
  hyperglycemia, hypertriglyceridemia and free fatty acid levels (in words): dose-dependent attenuation of hyperglycemia, hypertriglyceridemia and free fatty acid levels
[1]; oral once per day for 28 days
  serum glucose (in words): dose dependent reduction of serum glucose
[2]; Compound BI 30 mg/kg, RSG 3 mg/kg, alone or combined
  body weight and food intake (in words): little effect on body weight and food intake
[2]; 4 Weeks oral once per day, Compound BI 30 mg/kg
  Body Weight (grams) Mean ± SD 4 Weeks: 50.3 ± 2.1 grams
[2]; 4 Weeks oral once per day, Compound BI 150 mg/kg
  Body Weight (grams) Mean ± SD 4 Weeks: 47.4 ± 2.7 grams
[2]; 4 weeks oral once per day, Compound BI 100 mg/kg
  Body Weight (grams) Mean ± SD 4 Weeks: 47.8 ± 3.6 grams
[2]; Compound BI 30 mg/kg
  Food Consumption Week 2: 5.3 grams/24 hr/mouse
  Food Consumption Week 3: 4.9 grams/24 hr/mouse
  Food Consumption Week 4: 5.6 grams/24 hr/mouse
  Change in Body Weight (grams): +8.4 grams
[2]; Compound BI 100 mg/kg
  Food Consumption Week 2: 3.6 grams/24 hr/mouse
  Food Consumption Week 3: 3.7 grams/24 hr/mouse
  Food Consumption Week 4: 5.1 grams/24 hr/mouse
  Change in Body Weight (grams): +6.3 grams
[2]; Compound BI 150 mg/kg
  Food Consumption Week 2: 3.1 grams/24 hr/mouse
  Food Consumption Week 3: 4.1 grams/24 hr/mouse
  Food Consumption Week 4: 6 grams/24 hr/mouse
  Change in Body Weight (grams): +6.6 grams
[3]; [8]
  Post-treatment Food Intake (5 Hour): 2.00 ± 0.18 grams
  Change in Body weight %: −1.90 ± 0.73%
  Change in Body weight (grams ± SEM): −0.40 ± 0.15 grams
  Post-treatment Body weight: 20.57 ± 0.51 grams
[4]; compound alone 100 mg/kg
  Glucose ± SD: 206 ± 44 mg/dL
[5]; Compound BI 100 mg/kg
  Serum Glucose (mg/dL) Mean ± SD: 376 ± 151 mg/dL
[6]; 2 weeks, Compound BI 100 mg/kg/day, RSG 3 mg/kg/day, alone or combined
  serum glucose (in words): reduced serum glucose relative to vehicle treated control animals
[6]; Cpd. BI 100 mg/kg
  Glucose: 302.0 ± 40.7 mg/dL
  Glucose (% Control): 44 ± 6 % Control
